Consider 2 compounds from PMC11407620, “Repurposing auranofin and meclofenamic acid as energy-metabolism inhibitors and anti-cancer drugs” (PLOS ONE, 2024).

SMILES strings stand for the structures. Values joined by “and” are separate entries in the source; they are usually repeats but may differ in a detail not shown here. Equal entries are not always repeated.

In data set [1] the test system is HeLa cells. In words: ROS production and total content (DHE). The class given is cell-based, human. To be noted: Aur 1.7 μM, 24 h. How it is done: Fig 3 Radical oxygen species in Aur-treated cancer cells. (A) ROS production and (B) ROS total content in DHE loaded-metastatic cancer cells. The 100% fluorescence corresponds to 1.9 ± 0.26 (n = 3); 1.2 ± 0.09 (n = 3); and 0.64 (n = 2) fluorescence arbitrary units for HeLa, MDA-MB-231 and U373 cells, respectively. The Aur concentration added was 1.7, 0.8 and 0.6 μM for HeLa, MDA-MB-231 and U373 cells, respectively. The contents of ROS shown were determined at the 120 min end-point, after adding 25 μM DHE. *p < 0.05 vs. Control (Non- treated cells).

The test system of data set [2] is HeLa cells. In words: Glycolysis flux (lactate production) in intact cells. The format is cell-based, human. The method, then: (§1) For glycolysis flux, cells (3 mg protein/mL) were incubated in KR buffer. Glycolysis was started by adding 5 mM external glucose (Sigma-Aldrich, MO, USA), and cellular samples were withdrawn after 0 and 10 min of incubation at 37°C under smooth orbital shaking. At the indicated times, the cells were rapidly mixed with 3% (w/v) ice-cold perchloric acid and centrifuged. The supernatants were neutralized with 1N KOH/100mM Tris. To rule out lactate production by glutaminolysis, cells were also incubated with 10 mM 2-deoxyglucose (Sigma-Aldrich, MO, USA). Lactate was determined by a standard method with lactate dehydrogenase (Roche, Mannheim, Germany) following the NADH formation at 340 nm.

The test system of the next data set is MDA-MB-231 cells. Described as above. Conditions: +Aur 0.8 μM, 24 h. The format is cell-based, human. How it is done:
as §1

In the next data set the test system is GAPDH. More on the design: method as in PMID 36560881. Conditions: OVCAR-8 cells; Aur 2.5 μM/ 8 h; cited from earlier work.
Data set [3] concerns HeLa, MDA-MB-231 and MDA-MB-468 cells. Description: Cell migration, wound healing assay. The format is cell-based, human. To be noted: Aur at IC50 (1.7, 0.8, 2 μM); 24 h. How it is done: The wound healing assay was performed for cell migration detection. In petri dishes with full DMEM, cancer cells (5 x 10^6 cells/well) were cultured at 37°C under 95% air and 5% CO2 until 80–90% confluence was attained. Afterwards, cell culture was wounded with a 1 mL pipette tip, washed twice with PBS (155 mM NaCl, 1.5 mM KH2PO4, 2.7 mM NaH2PO4, pH 7.2) and subsequently incubated at 37°C with fresh non-serum DMEM. Cellular migration images were taken in an inverted microscope (Zeiss, Thornwood, NY, USA) after 0 and 24 h incubation time. Using a graduated reticule (Zeiss, Thornwood, NY, USA), cellular migration was assessed from the petri dish’s border to its center distance travelled.
The Aur concentration added was 1.7, 0.8 and 2 μM for HeLa, MDA-MB-231 and MDA-MB-468 cells, respectively. n = 3; *p < 0.05, **p<0.01 vs. Control (Non-treated cells).

On the set-up of data set [4]: method as in PMID 27821451, PMID 6411921. To be noted: patients receiving oral Aur; after 24 h -7 d of treatment; cited from earlier work.
A further data set has as its system Rat Heart Mitochondria. In words: Oxygen consumption of isolated mitochondria. The class given is biochemical. To be noted: 5 mM Glutamate/5 mM Malate. How it is done: Rat liver (RLM) and heart (RHM) mitochondria were isolated as described previously by differential centrifugation.
Respiration of AS-30D, liver and heart mitochondria (1 mg protein/mL) was assayed oxygraphically with a Clark-type O2 electrode in KME (120 mM KCl, 20 mM Mops, 1 mM EGTA) buffer pH 7.2 plus 2 mM KH2PO4, and different oxidizable substrates (as indicated in Results). For state 3 respiration, 600 nmol ADP were added. Mitochondria were incubated at 37°C with Aur and MA for 30–60 s before substrates were added. At the end of each respiratory measurement, dithionite was added to get the chemical zero oxygen signal.

The test system of data set [5] is HeLa cells. In words: Cell invasiveness, Boyden chamber. The format is cell-based. To be noted: Homo sapiens, MA 10 μM, 24 h. The method, then:
The 96-multiwell Boyden chambers (Merck Millipore, MA, USA) assay was performed for cellular invasiveness detection. Cancer cells (5 × 10^4 cells/well) were re-suspended in free-serum DMEM and placed in the upper Boyden chamber compartment. Free-serum DMEM was also placed in the lower compartment of the chamber. Afterwards, the Boyden chamber was placed at 37°C and 95% air/5% CO2 for 24 h. Invasive cancer cells within the lower chamber compartment were detected by using the calcein-AM (60 nM, 1 h) assay at 37°C. Calcein-fluorescence was measured at λexcitation = 485 nm and λemission = 520 nm in a Nunclon microplate reader (Roskilde, Denmark).
S1 Figure. Cancer invasiveness assay in metastatic cancer cells exposed to MA (A) and perhexiline (B) for 24 h. All cancer cell invasiveness was compared with MDA-MB-231 cells, which are cancer cells with the highest invasiveness ability. n=3; *P < 0.05 vs. MDA-MB-231 non-treated cells.

For the compound `CC(=O)OC[C@H]1O[C@@H]([S-])[C@H](OC(C)=O)[C@@H](OC(C)=O)[C@@H]1OC(C)=O.CCP(CC)CC.[Au+]` [Aur, [1-(thio-κS)-β-D-glucopyranose-2,3,4,6-tetraacetyl] (triethylphosphine)-gold], in the data set on HeLa cells [1], the ROS production rate result is on record as “did not bring about increments” and the “total ROS levels after 2 h measurement” value is reported as “did not bring about increments”. The Glycolysis flux in the data set on HeLa cells [2] (+Aur 1.7 μM, 24 h) is listed as 4 ± 3 (3) nmol lactate min^-1 mg protein^-1. In the data set with HeLa cells [2] (Aur alone (Table 2)), this compound yielded a glycolytic flux inhibition of 75%. Also, the Glycolysis flux in the data set with MDA-MB-231 cells is given as 3 ± 2 (3) nmol lactate min^-1 mg protein^-1. In the data set with GAPDH, the “lower GAPDH activity vs. non-treated cells” value is given as 40%. Moreover, in data set [3], the inhibition of migration was 90–95%. Moreover, in data set [4], the “blood Aur levels” value was 49–310 ng/mL and 0.1–0.6 μM.
What is called inhibition is the share of the control response that was lost under treatment. Regarding `Cc1ccc(Cl)c(Nc2ccccc2C(=O)O)c1Cl` [MA, Meclofenamic acid], in the data set with Rat Heart Mitochondria (10 μM MA), the “Net State 3 oxygen consumption rate” value came to 48 ± 83, the “Pseudo State 4 oxygen consumption rate” value is on record as 143 ± 42 (3), the RC is listed as 1.4 ±0.6 (3) and the “State 3 oxygen consumption rate” value was 177 ± 56 (3). The “State 4 oxygen consumption rate” value in the data set with Rat Heart Mitochondria (10 μM MA) is on record as 126 ± 16 (3). For the same compound, in the data set with Rat Heart Mitochondria (50 μM MA), the “Net State 3 oxygen consumption rate” value came to 12.5± 22, the “Pseudo State 4 oxygen consumption rate” value is on record as 134 ± 9.5 (3), the RC is 1 (3) and the “State 3 oxygen consumption rate” value was 139 ± 22 (3). The “State 4 oxygen consumption rate” value in the data set with Rat Heart Mitochondria (50 μM MA) is recorded as 139 ± 22 (3). In the data set with HeLa cells [5], 10 µM produced 65% inhibition.
